Starred links: 1 amine or outer side, 2 acyl side, 3 side chain; linkers in the order of their positions; H or OH if unused. Non-standard residues stand in square brackets, D forms with d. Residues, ends and D or L forms follow the SMILES beside them. Groups on a side chain read outwards from the residue. *: point of attachment. Phe(4-CH2NH2) = NCc1ccc(C[C@H](N)C(=O)O)cc1; C18 diacid = O=C(O)CCCCCCCCCCCCCCCCC(=O)*; C16 diacid = O=C(O)CCCCCCCCCCCCCCC(=O)*; γGlu = O=C(O)[C@H](CCC(=O)[*:2])N[*:1]; Met(O2) = CS(=O)(=O)CC[C@H](N)C(=O)O; AEEA = NCCOCCOCC(=O)O; Aib = CC(C)(N)C(=O)O

As a reminder, the EC50 is the concentration needed to bring the measured effect to its halfway point.

The target in one assay is T1, human GCGR (Homo sapiens, UniProt P47871).
T1 construct: expressed in transfected cells; kept under Blasticidin and Hygromycin selection
Briefly: cAMP activity assay, cells expressing human GCGR. The class given is cell-based. The settings on record: for EC50: cAMP production, cells expressing human GCGR, assay buffer with or without 20% human serum (not stated which), read-out: GCGR EC50 human; for hGCGR/hGLP1R (hTone): ratio of human GCGR EC50 to human GLP1R EC50. As for the experimental part: (§1) Activity of the peptides at the Glucagon receptor (GCGR) and GLP-1 receptor (GLP1R) was measured in a cAMP activity assay. Peptides were dissolved in 100% DMSO and serially diluted to generate 10 point titrations. The peptide solutions were then transferred into 384-well assay plates (150 nL/well). […] Production of cAMP was determined using […] kits (DiscoverX) following manufacturer protocol. The plates were incubated for overnight at room temperature in the dark. Luminescence was measured using an EnVision Multilabel plate reader (Perkin Elmer). Native GLP-1 and Glucagon (Bachem) are used as control peptides. EC50 values were calculated using uses a 4 parameter logistic fit based on the Levenberg-Marquardt algorithm.
(In general: Changes in cAMP serve as a functional read-out for many G protein-coupled receptors.)

In the next assay the target is T2, human GLP1R (Homo sapiens, UniProt P43220).
T2 construct: expressed in transfected cells; kept under Blasticidin and Hygromycin selection
The assay can be described thus: cAMP activity assay, cells expressing human GLP1R. The class given is cell-based. The settings on record: cAMP production, assay buffer with or without 20% human serum (not stated which). As for the experimental part:
as §1

T2 sequence (P43220 24-463): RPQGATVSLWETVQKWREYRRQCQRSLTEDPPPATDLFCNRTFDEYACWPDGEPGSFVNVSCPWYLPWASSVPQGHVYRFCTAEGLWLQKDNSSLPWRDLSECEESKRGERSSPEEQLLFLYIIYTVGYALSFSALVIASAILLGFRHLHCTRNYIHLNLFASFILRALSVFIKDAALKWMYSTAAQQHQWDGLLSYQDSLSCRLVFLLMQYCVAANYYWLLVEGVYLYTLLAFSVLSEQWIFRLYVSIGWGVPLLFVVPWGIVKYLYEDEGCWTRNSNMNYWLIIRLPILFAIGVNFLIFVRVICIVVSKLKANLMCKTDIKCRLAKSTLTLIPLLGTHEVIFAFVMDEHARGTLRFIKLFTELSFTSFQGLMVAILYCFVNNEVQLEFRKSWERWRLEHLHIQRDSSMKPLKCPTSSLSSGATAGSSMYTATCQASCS
T1 sequence (P47871 26-477): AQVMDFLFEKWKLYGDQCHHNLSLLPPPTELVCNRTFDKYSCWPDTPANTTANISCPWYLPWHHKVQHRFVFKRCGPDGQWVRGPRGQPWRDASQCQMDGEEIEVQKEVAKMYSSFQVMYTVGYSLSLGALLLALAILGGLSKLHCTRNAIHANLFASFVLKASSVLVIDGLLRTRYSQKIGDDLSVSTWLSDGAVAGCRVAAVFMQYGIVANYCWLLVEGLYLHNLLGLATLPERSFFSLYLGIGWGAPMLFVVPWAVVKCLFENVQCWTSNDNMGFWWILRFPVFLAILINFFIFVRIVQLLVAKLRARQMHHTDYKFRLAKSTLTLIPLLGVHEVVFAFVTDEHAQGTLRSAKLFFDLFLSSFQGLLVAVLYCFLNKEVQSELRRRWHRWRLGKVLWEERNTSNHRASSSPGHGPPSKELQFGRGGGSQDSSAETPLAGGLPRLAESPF

For `CC(C)C[C@H](NC(=O)[C@H](Cc1ccc(O)cc1)NC(=O)[C@H](CCCCN)NC(=O)[C@H](CO)NC(=O)[C@H](Cc1ccc(O)cc1)NC(=O)[C@H](CC(=O)O)NC(=O)[C@H](CO)NC(=O)[C@@H](NC(=O)[C@H](Cc1ccccc1)NC(=O)[C@@H](NC(=O)CNC(=O)[C@H](CCC(N)=O)NC(=O)[C@@H](CO)NC(=O)[C@@H](N)Cc1c[nH]cn1)[C@@H](C)O)[C@@H](C)O)C(=O)N[C@@H](CC(=O)O)C(=O)N[C@@H](C)C(=O)N[C@@H](CCCNC(=N)N)C(=O)N[C@@H](C)C(=O)N[C@@H](C)C(=O)N[C@@H](CCC(N)=O)C(=O)N[C@@H](CCCCNC(=O)COCCOCCNC(=O)COCCOCCNC(=O)CC[C@H](NC(=O)CCCCCCCCCCCCCCC(=O)O)C(=O)O)C(=O)N[C@@H](Cc1ccccc1)C(=O)N[C@H](C(=O)N[C@@H](CCC(N)=O)C(=O)N[C@@H](Cc1c[nH]c2ccccc12)C(=O)N[C@@H](CC(C)C)C(=O)N[C@@H](CC(C)C)C(=O)N[C@@H](CC(=O)O)C(=O)N[C@H](C(N)=O)[C@@H](C)O)C(C)C` [compound 3] (H-H[dS]QGTFTSDYSKYLDARAAQK([AEEA-AEEA-γGlu-C16 diacid])FVQWLLDT-NH2), at human GCGR, the EC50 came out at 0.05 nM and the “hGCGR/hGLP1R (hTone)” value was determined as 0.23. This compound also returned an EC50 at human GLP1R of 0.2 nM.
For `CC(C)C[C@H](NC(=O)[C@H](Cc1c[nH]c2ccccc12)NC(=O)[C@H](CCC(N)=O)NC(=O)[C@@H](NC(=O)[C@H](Cc1ccccc1)NC(=O)[C@H](CC(=O)O)NC(=O)[C@H](CCC(N)=O)NC(=O)[C@H](C)NC(=O)[C@H](C)NC(=O)[C@H](CCCNC(=N)N)NC(=O)C(C)(C)NC(=O)[C@H](CC(=O)O)NC(=O)[C@H](CC(C)C)NC(=O)[C@H](Cc1ccc(O)cc1)NC(=O)[C@H](CCCCN)NC(=O)[C@H](CO)NC(=O)[C@H](CCCCNC(=O)COCCOCCNC(=O)COCCOCCNC(=O)CC[C@H](NC(=O)CCCCCCCCCCCCCCCCC(=O)O)C(=O)O)NC(=O)[C@H](CC(=O)O)NC(=O)[C@H](CO)NC(=O)[C@@H](NC(=O)[C@H](Cc1ccccc1)NC(=O)[C@@H](NC(=O)CNC(=O)[C@H](CCC(N)=O)NC(=O)C(C)(C)NC(=O)[C@@H](N)Cc1c[nH]cn1)[C@@H](C)O)[C@@H](C)O)C(C)C)C(=O)N[C@@H](CCS(C)(=O)=O)C(=O)N[C@@H](CC(=O)O)C(=O)N[C@H](C(N)=O)[C@@H](C)O` [compound 4] (H-H[Aib]QGTFTSDK([AEEA-AEEA-γGlu-C18 diacid])SKYLD[Aib]RAAQDFVQWL[Met(O2)]DT-NH2; N-terminus assumed) the same measures were 1.42 nM, 5.36 and 0.27 nM.
For `CC(C)C[C@H](NC(=O)[C@H](Cc1c[nH]c2ccccc12)NC(=O)[C@H](CCC(N)=O)NC(=O)[C@@H](NC(=O)[C@H](Cc1ccccc1)NC(=O)[C@H](CC(=O)O)NC(=O)[C@H](CCC(N)=O)NC(=O)[C@H](C)NC(=O)[C@H](C)NC(=O)[C@H](CCCNC(=N)N)NC(=O)C(C)(C)NC(=O)[C@H](CC(=O)O)NC(=O)[C@H](CC(C)C)NC(=O)[C@H](Cc1ccc(O)cc1)NC(=O)[C@H](CCCCNC(=O)COCCOCCNC(=O)COCCOCCNC(=O)CC[C@H](NC(=O)CCCCCCCCCCCCCCCCC(=O)O)C(=O)O)NC(=O)[C@H](CO)NC(=O)[C@H](Cc1ccc(O)cc1)NC(=O)[C@H](CC(=O)O)NC(=O)[C@H](CO)NC(=O)[C@@H](NC(=O)[C@H](Cc1ccccc1)NC(=O)[C@@H](NC(=O)CNC(=O)[C@H](CCC(N)=O)NC(=O)C(C)(C)NC(=O)[C@@H](N)Cc1c[nH]cn1)[C@@H](C)O)[C@@H](C)O)C(C)C)C(=O)N[C@@H](CCS(C)(=O)=O)C(=O)N[C@@H](CC(=O)O)C(=O)N[C@H](C(N)=O)[C@@H](C)O` [compound 5] (H-H[Aib]QGTFTSDYSK([AEEA-AEEA-γGlu-C18 diacid])YLD[Aib]RAAQDFVQWL[Met(O2)]DT-NH2) the same measures were 0.97 nM, 8.80 and 0.11 nM.
On the same counts, the results for `CC(C)C[C@H](NC(=O)[C@H](Cc1ccc(O)cc1)NC(=O)[C@H](CCCCN)NC(=O)[C@H](CO)NC(=O)[C@H](CCCCNC(=O)COCCOCCNC(=O)COCCOCCNC(=O)CC[C@H](NC(=O)CCCCCCCCCCCCCCCCC(=O)O)C(=O)O)NC(=O)[C@H](CC(=O)O)NC(=O)[C@H](CO)NC(=O)[C@@H](NC(=O)[C@H](Cc1ccccc1)NC(=O)[C@@H](NC(=O)CNC(=O)[C@H](CCC(N)=O)NC(=O)[C@@H](CO)NC(=O)[C@@H](N)Cc1c[nH]cn1)[C@@H](C)O)[C@@H](C)O)C(=O)N[C@@H](CC(=O)O)C(=O)N[C@@H](C)C(=O)N[C@@H](CCCNC(=N)N)C(=O)N[C@@H](C)C(=O)N[C@@H](C)C(=O)N[C@@H](CCC(N)=O)C(=O)N[C@@H](CC(=O)O)C(=O)N[C@@H](Cc1ccccc1)C(=O)N[C@H](C(=O)N[C@@H](CCC(N)=O)C(=O)N[C@@H](Cc1c[nH]c2ccccc12)C(=O)N[C@@H](CC(C)C)C(=O)N[C@@H](CC(C)C)C(=O)N[C@@H](CC(=O)O)C(=O)N[C@H](C(N)=O)[C@@H](C)O)C(C)C` [compound 6] (H-H[dS]QGTFTSDK([AEEA-AEEA-γGlu-C18 diacid])SKYLDARAAQDFVQWLLDT-NH2) are 1.7 nM, 1.24 and 1.37 nM.
Consider `CC(C)C[C@H](NC(=O)[C@H](Cc1ccc(O)cc1)NC(=O)[C@H](CCCCN)NC(=O)[C@H](CO)NC(=O)[C@H](Cc1ccc(CNC(=O)COCCOCCNC(=O)COCCOCCNC(=O)CC[C@H](NC(=O)CCCCCCCCCCCCCCC(=O)O)C(=O)O)cc1)NC(=O)[C@H](CC(=O)O)NC(=O)[C@H](CO)NC(=O)[C@@H](NC(=O)[C@H](Cc1ccccc1)NC(=O)[C@@H](NC(=O)CNC(=O)[C@H](CCC(N)=O)NC(=O)C(C)(C)NC(=O)[C@@H](N)Cc1c[nH]cn1)[C@@H](C)O)[C@@H](C)O)C(=O)N[C@@H](CC(=O)O)C(=O)N[C@@H](CCC(=O)O)C(=O)N[C@@H](CCCNC(=N)N)C(=O)N[C@@H](C)C(=O)N[C@@H](C)C(=O)N[C@@H](CCC(N)=O)C(=O)N[C@@H](CC(=O)O)C(=O)N[C@@H](Cc1ccccc1)C(=O)N[C@H](C(=O)N[C@@H](CCC(N)=O)C(=O)N[C@@H](Cc1c[nH]c2ccccc12)C(=O)N[C@@H](CC(C)C)C(=O)N[C@@H](CC(C)C)C(=O)N[C@@H](CCCCN)C(=O)N[C@H](C(N)=O)[C@@H](C)O)C(C)C` [compound 8] (H-H[Aib]QGTFTSD[Phe(4-CH2NH2)]([AEEA-AEEA-γGlu-C16 diacid])SKYLDERAAQDFVQWLLKT-NH2), for which, at human GCGR, the EC50 was 0.42 nM and the “hGCGR/hGLP1R (hTone)” value came to 15.26. The EC50 on human GLP1R came out at 0.03 nM.
On the same counts, the results for `CC(C)C[C@H](NC(=O)[C@H](Cc1ccc(O)cc1)NC(=O)[C@H](CCCCN)NC(=O)[C@H](CO)NC(=O)[C@H](CCCCNC(=O)CC[C@H](NC(=O)CC[C@H](NC(=O)CCCCCCCCCCCCCCC(=O)O)C(=O)O)C(=O)O)NC(=O)[C@H](CC(=O)O)NC(=O)[C@H](CO)NC(=O)[C@@H](NC(=O)[C@H](Cc1ccccc1)NC(=O)[C@@H](NC(=O)CNC(=O)[C@H](CCC(N)=O)NC(=O)[C@@H](CO)NC(=O)[C@@H](N)Cc1c[nH]cn1)[C@@H](C)O)[C@@H](C)O)C(=O)N[C@@H](CC(=O)O)C(=O)N[C@@H](CCC(=O)O)C(=O)N[C@@H](CCCNC(=N)N)C(=O)N[C@@H](C)C(=O)N[C@@H](C)C(=O)N[C@@H](CCC(N)=O)C(=O)N[C@@H](CC(=O)O)C(=O)N[C@@H](Cc1ccccc1)C(=O)N[C@H](C(=O)N[C@@H](CCC(N)=O)C(=O)N[C@@H](Cc1c[nH]c2ccccc12)C(=O)N[C@@H](CC(C)C)C(=O)N[C@@H](CC(C)C)C(=O)N[C@@H](CCCCN)C(=O)N[C@H](C(N)=O)[C@@H](C)O)C(C)C` [compound 9] are 1.98 nM, 3.22 and 0.67 nM.
On the same counts, the results for `CC(C)C[C@H](NC(=O)[C@H](Cc1ccc(O)cc1)NC(=O)[C@H](CCCCN)NC(=O)[C@H](CO)NC(=O)[C@H](Cc1ccc(CNC(=O)COCCOCCNC(=O)COCCOCCNC(=O)CC[C@H](NC(=O)CCCCCCCCCCCCCCC(=O)O)C(=O)O)cc1)NC(=O)[C@H](CC(=O)O)NC(=O)[C@H](CO)NC(=O)[C@@H](NC(=O)[C@H](Cc1ccccc1)NC(=O)[C@@H](NC(=O)CNC(=O)[C@H](CCC(N)=O)NC(=O)[C@@H](CO)NC(=O)[C@@H](N)Cc1c[nH]cn1)[C@@H](C)O)[C@@H](C)O)C(=O)N[C@@H](CC(=O)O)C(=O)N[C@@H](CCC(=O)O)C(=O)N[C@@H](CCCNC(=N)N)C(=O)N[C@@H](C)C(=O)N[C@@H](C)C(=O)N[C@@H](CCC(N)=O)C(=O)N[C@@H](CC(=O)O)C(=O)N[C@@H](Cc1ccccc1)C(=O)N[C@H](C(=O)N[C@@H](CCC(N)=O)C(=O)N[C@@H](Cc1c[nH]c2ccccc12)C(=O)N[C@@H](CC(C)C)C(=O)N[C@@H](CC(C)C)C(=O)N[C@@H](CCCCN)C(=O)N[C@H](C(N)=O)[C@@H](C)O)C(C)C` [compound 10] (H-H[dS]QGTFTSD[Phe(4-CH2NH2)]([AEEA-AEEA-γGlu-C16 diacid])SKYLDERAAQDFVQWLLKT-NH2; N-terminus assumed) are 0.12 nM, 0.26 and 0.46 nM.

The values are drawn from patent US11492385B2, “Long-acting co-agonists of the glucagon and GLP-1 receptors” (Merck Sharp & Dohme Corp., priority 2015, dated 2022).
